The subject of assay [1] is shy1-G137R cells. Nature of the assay: Growth in liquid non-fermentable medium with increasing DSF concentrations. It is filed as cell-based, Saccharomyces cerevisiae. To be noted: 40 h, 2% glycerol and 0.1% galactose. On the procedure: Exponentially growing cells were inoculated in fresh non-fermentable YPG or YPE media supplemented, or not, with increasing DSF concentrations.
More precisely, the shy1-G137R and Δcoa6 cells have been grown for 40 h in liquid medium containing 2% glycerol and 0.1% galactose as carbon source and increasing concentrations of DSF (100 nM to 6 μM). The A29G and fmc1Δ cells have been grown for 48 h in liquid medium containing 2% glycerol as carbon source and increasing concentrations of DSF (50 nM to 5 μM). The taz1Δ and sym1Δ cells have been grown for 48 h in rich liquid medium containing 2% ethanol/0.2% galactose and 2% glycerol/2% ethanol as a carbon source, respectively, and increasing concentrations of DSF (100 nM to 9 μM).

The test system of assay [2] is mitochondrial complex I in MELAS neuronal cybrid cells. Nature of the assay: Complex I enzyme activity in MELAS cybrid cells. It is filed as cell-based, human. To be noted: FIG. 5; various concentrations, especially from 30 to 90 nM; 48 h exposure; low glucose medium (0.5 g/l). As for the experimental part: FIG. 5: Effect of DSF compared to untreated mutant cells (DMSO vehicle) after 48 h exposure on complex I enzyme activity in MELAS neuronal cybrid cells in low glucose medium (0.5 g/l).
The SH-SY5Y neuronal mutant cybrid cells, carrying the m.3243A>G with 98.6% mutant load responsible for MELAS syndrome, were cultured in standard DMEM high glucose media (4.5 g/L) or in low glucose (0.5 g/L), supplemented with 10% fetal bovine serum, 1% glutamine and 50 μg/ml uridine at 37° C. in presence of 5% CO2 as described elsewhere (Desquiret-Dumas et al. & Geffroy et al.). To optimize drug concentrations, cells were shifted to low glucose-medium 0.5 g/l (to force the cells to rely on OXPHOS rather than glycolysis) supplemented with various concentrations of DSF or of the vehicle (DMSO).
Complex I enzyme activity was measured at 37° C. on an UVmc2 spectrophotometer (SAFAS) as described (Desquiret-Dumas et al., 2012). For complex I enzyme activity, 0.5 million of cells were sonicated (6 cycles of 5 seconds) then incubated at 37° C. in the reaction medium (KH2PO4 100 mM, pH 7.4, KCN 1 mM, NaN3 2 mM, BSA 1 mg/ml, ubiquinone-1 0.1 mM and DCPIP 0.075 mM). The reaction was started by adding 0.15 mM NADH and the disappearing rate of DCPIP was measured at 600 nm for 2 minutes. The unspecific activity was determined in the presence of rotenone (5 μM).

For `CCN(CC)C(=S)SSC(=S)N(CC)CC` [DSF, 1-(diethylthiocarbamoyldisulfanyl)-N,N-diethyl-methanethioamide], in assay [1] (Saccharomyces cerevisiae, DSF 100 nM to 6 μM, read-out: toxic dose (IC50)), the half-inhibitory concentration (IC50) (commonly the concentration that inhibits the measured activity by half) came out at 1900 nM. The optimal concentration in assay [1] (suppression of respiratory growth defect) was 300 nM. Further, the “effect on complex I activity” value in assay [2] is reported as “increases complex I activity”.

The values are drawn from patent US20220241223A1, “USE OF DISULFIRAM OR ITS DERIVATIVES FOR THE TREATMENT OF MITOCHONDRIAL DISEASES OR DYSFUNCTION” (Universite D'angers, priority 2019, published 2022).
